Measurements from paper PMC8911640, “Synthesis and Structure–Activity Relationship of Thioacetamide-Triazoles against Escherichia coli” (Molecules, 2022).
In brackets after ≈: the same amount, converted by molar mass. Several values for one entry are separate records, joined by “and”; a condition that tells them apart may be missing. Equal entries are not always repeated. Where two headings read alike, the source gives them in different places.

Experiments:
[1] = tested on: E. coli K12 MG1655; test: MIC testing by CLSI broth microdilution in M9-based minimal media ATCC 2511, with or without methionine; format: cell-based, Escherichia coli; conditions: for MIC90: Escherichia coli; for antibacterial activity against E. coli in words: E. coli K12
Description: To explore the SAR around the right hand aryl portion of the TAT series (Table 1), compounds were evaluated for their in vitro antibacterial activity against E. coli in the M9-based minimal media ATCC 2511. […]. An MIC shift between the two medias was used to indicate that antibacterial activity of the compounds remained on target, and this was happily seen with all of the most MIC active compounds generated in this study. Within the first series of compounds in Table 1, modifications to the phenyl ring are generally well tolerated. MICs remain within 2-fold of the initial hit 1 for the fluoro- and cyano- substituted compounds 1–8. […]. Incorporating the electron-donating group -OMe and sterically bulky iodine group in both ortho and para position, 17–20, maintained activity, whereas the introduction of the strong electron-withdrawing -CF3 group, 21 and 22, led to poorer MIC activity. […] The phenyl ring isosteres—thiazoles 25 and 26—both retained good MIC activity. Adding a methyl branch to the thioacetamide linker 28 and 29 led to a striking loss of activity. Replacement of the aryl group with the aliphatic groups cyclohexyl 31, cyclopentyl 32, tert-butyl groups 33 all reduced activity.
MICs were determined following CLSI broth microdilution susceptibility M100 guidelines. Compound solutions were prepared in DMSO and serially diluted 1:2 in 100 μL/well in 96 well round-bottom plates. E. coli K12 MG1655 was acquired from ATCC and strictly maintained in the M9-based media ATCC 2511. ATCC 2511 was also used for all further cultivation and MIC testing. Bacteria were grown from a single colony to a mid-log OD600 and frozen in 0.5 mL aliquots. These aliquots were used to directly inoculate the assay plates by diluting to an OD600 of 0.001 and plating 100 μL per well, allowing for ~10^5 CFU to be added to each well.

[2] = tested on: E. coli K12; test: Whole cell accumulation in E. coli K12 (LC-MS/MS); parameters: dose or concentration left out as unconfirmed; conditions: 10 min, 37 °C; average of three biological replicates
Description: Drug uptake in whole cell E. coli K12, was performed following a modified protocol adapted from previously published studies [17, 25, 26, 27]. […] After incubation, 800 mL of antibiotic-exposed cells were spun (3 min, 13,000× g) through 700 mL of a 9:1 mix of AR20 and high temperature silicon oils (cooled to −80°C). The supernatant of silicone oil and free compound in PBS was carefully removed from pellet. Intracellular concentration of antibiotics within the bacterial cells was then determined.
For lysis, cells were resuspended in 200 mL of water and lysed by three freeze-thaw cycles of 3 min each in liquid nitrogen and in a 60 °C water bath. Lysed cells were pelleted and 150 mL of aqueous extract was transferred to a clean 1.5 mL microcentrifuge tube. Cell debris was resuspended in the remaining 50 mL of water and then extracted with 100 mL of methanol. Cells were again centrifuged, 100 mL of the methanol extract were removed and combined with the water supernatant. The extracts were allowed to rest at room temperature for 1 h before being centrifuged for 10 min at 20,000× g. Finally, extracts were filtered through a 0.22mm spin column to remove any remaining cellular debris.
Samples were analyzed with a Waters Acquity M Class series UPLC system and Xevo G2 QTOF tandem MS/MS with Zspray. Using a Phenomenex Kinetex 2.6 μm XB-C18, 100 Å (300 μm × 150 mm) column with solvent A, 0.1% formic acid in water, and solvent B, 0.1% formic acid in acetonitrile, 250 nL of extract were separated. […] High-resolution spectra were calibrated by co-infusion of 2 ng/mL leucine enkephalin lockspray (Waters). Data were quantified using Waters MassLynx software where the AUC was determined by integrating the daughter peak of the parent ion. Concentrations of the unknown compounds were determined by the linear fit of the standard curve. Concentrations were normalized to the culture density, determined via titers, to 10^10 CFU and are reported as the average of three biological replicates.

[3] = Solubility; format: physicochemical; conditions: pH 7.4 (Table S1); for solubility: read-out: Solubility Avg. Sol
Description: The in vitro ADME values (solubility, mouse plasma stability, human plasma stability, mouse metabolic stability, and human metabolic stability) were determined as previously reported.

[4] = No Supplement (N.S.), ATCC 2511 media, 16 h, 37 °C, read-out: E. coli K12 MIC90
[5] = MG1655, read-out: E. coli K12 MIC90
[6] = 16 h, read-out: E. coli K12 MIC90
[7] = No Supplement (N.S.), ATCC 2511 media, 16 h, 37 °C

Compound | MIC90 [1, 4] [mg/L] | melting point [°C] | MIC90 [1, 5] [mg/L] | also measured
N#Cc1cccnc1NC(=O)CSc1c[nH]nn1 [Compound 12] | 25 (≈ 96 µM) | 113 to 114 | – | –
CN(C(=O)CSc1c[nH]nn1)c1ccc(F)cc1 [Compound 23] | 25 (≈ 93.9 µM) | 95 to 96 | – | –
O=C(CSc1cnn[nH]1)NCc1ccccn1 [Compound 40] | 12.5 (≈ 50.1 µM) | – | > 50 | –
O=C(CSc1cnn[nH]1)NCc1ccc(C(F)(F)F)cc1 [Compound 44] | 50 (≈ 158 µM) | 133 to 135 | – | –
O=C(CSc1cnn[nH]1)NCc1ccc(F)cc1 [Compound 39, 2-[(1H-1,2,3-triazol-5-yl)sulfanyl]-N-(4-fluorobenzyl)acetamide] | 6.3 (≈ 23.7 µM) | 122 to 124 | 50 (≈ 188 µM) | –
O=C(CSc1cnn[nH]1)NCc1cccc(F)c1 [Compound 41] | 6.3 (≈ 23.7 µM) | 85 to 86 | – | –
COc1ccc(NC(=O)CSc2c[nH]nn2)cc1 [Compound 18, 2-[(1H-1,2,3-triazol-4-yl)sulfanyl]-N-(4-methoxyphenyl)acetamide] | 3.1 (≈ 11.7 µM) | 130 to 131 | 12.5 (≈ 47.3 µM) | –
O=C(NCCSc1cnn[nH]1)c1ccc(O)c(O)c1 [Compound 59] | 50 (≈ 178 µM) | – | – | Whole Cell Accumulation in E. coli [2]: 1.0 ± 0.1 μM/10^10 CFU; antibacterial activity against E. coli in words [1]: moderate activity
N#Cc1ccc(NC(=O)CSc2c[nH]nn2)cn1 [Compound 15, 2-[(1H-1,2,3-triazol-4-yl)sulfanyl]-N-(6-cyanopyridin-3-yl)acetamide] | 6.3 (≈ 24.2 µM) | 198 to 199 | 50 (≈ 192 µM) | –
Cn1nnnc1SCC(=O)Nc1ccccc1 [Compound 62] | > 200 | – | – | antibacterial activity against E. coli in words [1]: inactive
COc1cc(Cc2cnc(N)nc2N)cc(OC)c1OC [Trimethoprim, reference compound] | – | – | – | MIC90 [1, 6]: 0.98 mg/L (≈ 3.38 µM)
Cn1cc(SCC(=O)Nc2ccccc2)nn1 [Compound 69] | > 200 | – | – | antibacterial activity against E. coli in words [1]: inactive
CCOC(=O)c1cnc(NC(=O)CSc2c[nH]nn2)s1 [Compound 26, Ethyl 2-{2-[(1H-1,2,3-triazol-4-yl)sulfanyl]acetamido}thiazole-5-carboxylate] | 3.1 (≈ 9.89 µM) | 172 to 174 | 12.5 (≈ 39.9 µM) | –
O=C(N[C@H](CO)[C@H](O)c1ccc([N+](=O)[O-])cc1)C(Cl)Cl [Chloramphenicol, reference compound] | 1.6 (≈ 4.95 µM) | – | – | –
N[C@H]1CCN(c2ccc(NC(=O)CSc3cnn[nH]3)cc2)C1 [Compound 50] | > 200 | – | – | Whole Cell Accumulation in E. coli [2]: 9.0 ± 2 μM/10^10 CFU
Cn1nncc1SCC(=O)Nc1ccccc1 [Compound 68] | > 200 | – | – | antibacterial activity against E. coli in words [1]: inactive
3-[(1H-1,2,3-triazol-4-yl)sulfanyl]-N-(2-fluorophenyl)propenamide [Compound 30] | – | – | – | E. coli K12 MIC90 ([1]; +20 μg/mL Methionine): 25 mg/L; E. coli K12 MIC90 [1, 7]: 6.3 mg/L
O=C(CSc1c[nH]nn1)Nc1ncccc1F [Compound 13, 2-[(1H-1,2,3-triazol-4-yl)sulfanyl]-N-(3-fluoropyridin-2-yl)acetamide] | 6.3 (≈ 24.9 µM) | 99 to 100 | 25 (≈ 98.7 µM) | –
O=C(CSc1c[nH]nn1)Nc1ncccn1 [Compound 27] | 25 (≈ 106 µM) | 136 to 138 | – | –
Cc1cc(NS(=O)(=O)c2ccc(N)cc2)no1 [Sulfamethoxazole, reference compound] | – | – | – | MIC90 [1, 6]: 0.98 mg/L (≈ 3.87 µM)
CCCSc1ccc2nc(NC(=O)OC)[nH]c2c1 [Albendazole, reference compound] | – | – | – | solubility ([3]; aqueous buffer): 5.33 µg/mL and 20.1 µM; %Soluble [3]: 20.1%
O=C(CSc1c[nH]nn1)Nc1ccc(F)cn1 [Compound 14, 2-[(1H-1,2,3-triazol-4-yl)sulfanyl]-N-(5-fluoropyridin-2-yl)acetamide] | 3.1 (≈ 12.2 µM) | 151 to 153 | 12.5 (≈ 49.4 µM) | –
O=C(CSc1c[nH]nn1)NC1CCCC1 [Compound 33] | 12.5 (≈ 55.2 µM) | 108 to 109 | 25 (≈ 110 µM) | –
O=C(CSc1cnn[nH]1)NCc1cc(F)cc(C(F)(F)F)c1 [Compound 42] | 50 (≈ 150 µM) | 82 to 84 | – | –

Compound | MIC90 [1, 4] [mg/L] | melting point [°C] | MIC90 [1, 5] [mg/L] | also measured
O=C(CSc1nncs1)Nc1ccccc1F [Compound 66] | > 200 | 123 to 125 | – | antibacterial activity against E. coli in words [1]: inactive
CCN(C(=O)CSc1c[nH]nn1)c1ccccc1F [Compound 24] | 12.5 (≈ 44.6 µM) | 82 to 83 | 25 (≈ 89.2 µM) | –
Cn1nnnc1SCC(=O)Nc1ccccc1F [Compound 65] | > 200 | 137 to 139 | – | antibacterial activity against E. coli in words [1]: inactive
NC(=O)N1c2ccccc2C=Cc2ccccc21 [Carbamazepine, reference compound] | – | – | – | %Soluble [3]: 85.1%; solubility ([3]; pH 7.4, aqueous buffer): 20.1 µg/mL and 85.1 µM
O=C(CSc1c[nH]nn1)Nc1cccc(F)c1 [Compound 7, 2-[(1H-1,2,3-triazol-4-yl)sulfanyl]-N-(3-fluorophenyl)acetamide] | 1.6 (≈ 6.34 µM) | – | 12.5 (≈ 49.5 µM) | E. coli K12 MIC90 [1, 7]: ≤ 3.1 mg/L
O=C(CSc1c[nH]nn1)NC1CCCCC1 [Compound 31] | 25 (≈ 104 µM) | 118 to 119 | – | –
O=C(CSc1c[nH]nn1)Nc1ccccc1C(F)(F)F [Compound 21] | 25 (≈ 82.7 µM) | 83 to 85 | – | –
O=C(CSc1c[nH]nn1)Nc1ccccc1I [Compound 19, 2-[(1H-1,2,3-triazol-4-yl)sulfanyl]-N-(2-iodophenyl)acetamide] | 3.1 (≈ 8.61 µM) | 122 to 124 | – | –
O=C(CSc1nncs1)Nc1ccccc1 [Compound 63] | > 200 | 109 to 110 | – | antibacterial activity against E. coli in words [1]: inactive
O=C(CSc1c[nH]nn1)Nc1ccc(I)cc1 [Compound 20, 2-[(1H-1,2,3-triazol-4-yl)sulfanyl]-N-(4-iodophenyl)acetamide] | 6.3 (≈ 17.5 µM) | 166 to 168 | 25 (≈ 69.4 µM) | –
O=C(CSc1cnn[nH]1)NCc1ccccc1F [Compound 38, 2-[(1H-1,2,3-triazol-5-yl)sulfanyl]-N-(2-fluorobenzyl)acetamide] | 3.1 (≈ 11.6 µM) | – | – | –
O=C(CSc1c[nH]nn1)Nc1ccncc1 [Compound 10] | 12.5 (≈ 53.1 µM) | 187 to 188 | 50 (≈ 213 µM) | fold change (loss) in MIC activity relative to initial hit 1 ([1]; E. coli K12, no supplement): 8 fold
Cc1nnc(SCC(=O)Nc2ccccc2)s1 [Compound 64] | > 200 | 153 to 154 | – | antibacterial activity against E. coli in words [1]: inactive
N#Cc1ccc(NC(=O)CSc2c[nH]nn2)nc1 [Compound 16, 2-[(1H-1,2,3-triazol-4-yl)sulfanyl]-N-(5-cyanopyridin-2-yl)acetamide] | 3.1 (≈ 11.9 µM) | 118 to 119 | 6.3 (≈ 24.2 µM) | –
O=C(CSc1cnn[nH]1)NCc1ccc(OC(F)(F)F)cc1 [Compound 45] | 100 (≈ 301 µM) | 131 to 133 | – | –
Cc1nnc(SCC(=O)Nc2ccccc2F)s1 [Compound 67] | > 200 | 111 to 113 | – | antibacterial activity against E. coli in words [1]: inactive
COc1ccccc1NC(=O)CSc1c[nH]nn1 [Compound 17, 2-[(1H-1,2,3-triazol-4-yl)sulfanyl]-N-(2-methoxyphenyl)acetamide] | 6.3 (≈ 23.8 µM) | 99 to 100 | – | –
O=C(CSc1cnn[nH]1)Nc1ccccc1 [Compound 11] | 1.6 (≈ 6.83 µM) | – | 6.3 (≈ 26.9 µM) | –
N#Cc1cccc(NC(=O)CSc2c[nH]nn2)c1 [Compound 8, 2-[(1H-1,2,3-triazol-4-yl)sulfanyl]-N-(3-cyanophenyl)acetamide] | 3.1 (≈ 12 µM) | 158 to 159 | 12.5 (≈ 48.2 µM) | –
Cn1nncc1SCC(=O)Nc1ccccc1F [Compound 70] | > 200 | – | – | antibacterial activity against E. coli in words [1]: inactive
Cn1cc(SCC(=O)Nc2ccccc2F)nn1 [Compound 71] | > 200 | – | – | antibacterial activity against E. coli in words [1]: inactive
O=C(CSc1c[nH]nn1)Nc1ccc(C(F)(F)F)cc1 [Compound 22] | 25 (≈ 82.7 µM) | 163 to 165 | – | –
CN(Cc1ccccc1F)C(=O)CSc1cnn[nH]1 [Compound 46] | 50 (≈ 178 µM) | – | – | –
